Assay results taken from ChEMBL document CHEMBL4308864, “Targeting tyrosine kinase: Development of acridone - pyrrole - oxindole hybrids against human breast cancer” (2019).

What was measured:
Format in all cases: functional
[1] = tested on: NCI-H460; assay: Growth inhibition of human NCI-H460 cells assessed as cell growth at 10^-5 M incubated for 48 hrs by sulforhodamine B assay relative to control; details: NCI-H460, 48 h, read-out: Activity
[2] = tested on: RPMI-8226; assay: Growth inhibition of human RPMI8226 cells assessed as cell growth at 10^-5 M incubated for 48 hrs by sulforhodamine B assay relative to control; details: RPMI-8226, 48 h, read-out: Activity
[3] = tested on: CAKI-1; assay: Growth inhibition of human Caki1 cells assessed as cell growth at 10^-5 M incubated for 48 hrs by sulforhodamine B assay relative to control; details: CAKI-1, 48 h, read-out: Activity
[4] = tested on: UO-31; assay: Growth inhibition of human UO31 cells assessed as cell growth at 10^-5 M incubated for 48 hrs by sulforhodamine B assay relative to control; details: UO-31, 48 h, read-out: Activity
[5] = tested on: NCI/ADR-RES; assay: Growth inhibition of human NCI/ADR-RES cells assessed as cell growth at 10^-5 M incubated for 48 hrs by sulforhodamine B assay relative to control; details: read-out: Activity
[6] = tested on: U-251; assay: Growth inhibition of human U251 cells assessed as cell growth at 10^-5 M incubated for 48 hrs by sulforhodamine B assay relative to control; details: U-251, 48 h, read-out: Activity
[7] = tested on: KM12; assay: Growth inhibition of human KM12 cells assessed as cell growth at 10^-5 M incubated for 48 hrs by sulforhodamine B assay relative to control; details: KM12, 48 h, read-out: Activity
[8] = tested on: OVCAR-4; assay: Growth inhibition of human OVCAR4 cells assessed as cell growth at 10^-5 M incubated for 48 hrs by sulforhodamine B assay relative to control; details: OVCAR-4, 48 h, read-out: Activity
[9] = tested on: SK-OV-3; assay: Growth inhibition of human SKOV3 cells assessed as cell growth at 10^-5 M incubated for 48 hrs by sulforhodamine B assay relative to control; details: SK-OV-3, 48 h, read-out: Activity
[10] = tested on: COLO 205; assay: Growth inhibition of human COLO205 cells assessed as cell growth at 10^-5 M incubated for 48 hrs by sulforhodamine B assay relative to control; details: COLO 205, 48 h, read-out: Activity
[11] = tested on: DU-145; assay: Growth inhibition of human DU145 cells assessed as cell growth at 10^-5 M incubated for 48 hrs by sulforhodamine B assay relative to control; details: DU-145, 48 h, read-out: Activity
[12] = tested on: SNB-75; assay: Growth inhibition of human SNB75 cells assessed as cell growth at 10^-5 M incubated for 48 hrs by sulforhodamine B assay relative to control; details: SNB-75, 48 h, read-out: Activity
[13] = tested on: OVCAR-8; assay: Growth inhibition of human OVCAR8 cells assessed as cell growth at 10^-5 M incubated for 48 hrs by sulforhodamine B assay relative to control; details: OVCAR-8, 48 h, read-out: Activity
[14] = tested on: SF-268; assay: Growth inhibition of human SF268 cells assessed as cell growth at 10^-5 M incubated for 48 hrs by sulforhodamine B assay relative to control; details: SF-268, 48 h, read-out: Activity
[15] = tested on: BT-549; assay: Growth inhibition of human BT549 cells assessed as cell growth at 10^-5 M incubated for 48 hrs by sulforhodamine B assay relative to control; details: BT-549, 48 h, read-out: Activity
[16] = tested on: SF-539; assay: Growth inhibition of human SF539 cells assessed as cell growth at 10^-5 M incubated for 48 hrs by sulforhodamine B assay relative to control; details: SF-539, 48 h, read-out: Activity
[17] = tested on: T47D; assay: Growth inhibition of human T47D cells at 10^-5 M incubated for 48 hrs by sulforhodamine B assay relative to control; details: read-out: GI
[18] = tested on: NCI-H322M; assay: Growth inhibition of human NCI-H322M cells assessed as cell growth at 10^-5 M incubated for 48 hrs by sulforhodamine B assay relative to control; details: read-out: Activity
[19] = tested on: HOP-92; assay: Growth inhibition of human HOP92 cells assessed as cell growth at 10^-5 M incubated for 48 hrs by sulforhodamine B assay relative to control; details: HOP-92, 48 h, read-out: Activity
[20] = tested on: UACC-257; assay: Growth inhibition of human UACC257 cells assessed as cell growth at 10^-5 M incubated for 48 hrs by sulforhodamine B assay relative to control; details: UACC-257, 48 h, read-out: Activity
[21] = tested on: K562; assay: Growth inhibition of human K562 cells assessed as cell growth at 10^-5 M incubated for 48 hrs by sulforhodamine B assay relative to control; details: K562, 48 h, read-out: Activity
[22] = tested on: MDA-MB-231; assay: Growth inhibition of human MDA-MB-231 cells assessed as cell growth at 10^-5 M incubated for 48 hrs by sulforhodamine B assay relative to control; details: MDA-MB-231, 48 h, read-out: Activity
[23] = tested on: A498; assay: Growth inhibition of human A498 cells assessed as cell growth at 10^-5 M incubated for 48 hrs by sulforhodamine B assay relative to control; details: A498, 48 h, read-out: Activity
[24] = tested on: OVCAR-3; assay: Growth inhibition of human OVCAR3 cells assessed as cell growth at 10^-5 M incubated for 48 hrs by sulforhodamine B assay relative to control; details: OVCAR-3, 48 h, read-out: Activity
[25] = tested on: M14; assay: Growth inhibition of human M14 cells assessed as cell growth at 10^-5 M incubated for 48 hrs by sulforhodamine B assay relative to control; details: M14, 48 h, read-out: Activity
[26] = tested on: CCRF-CEM; assay: Growth inhibition of human CCRF-CEM cells assessed as cell growth at 10^-5 M incubated for 48 hrs by sulforhodamine B assay relative to control; details: read-out: Activity
[27] = tested on: LOX IMVI; assay: Growth inhibition of human LOXIMVI cells assessed as cell growth at 10^-5 M incubated for 48 hrs by sulforhodamine B assay relative to control; details: read-out: Activity
[28] = tested on: HCC 2998; assay: Growth inhibition of human HCC2998 cells assessed as cell growth at 10^-5 M incubated for 48 hrs by sulforhodamine B assay relative to control; details: HCC 2998, 48 h, read-out: Activity
[29] = tested on: TK-10; assay: Growth inhibition of human TK10 cells assessed as cell growth at 10^-5 M incubated for 48 hrs by sulforhodamine B assay relative to control; details: TK-10, 48 h, read-out: Activity
[30] = tested on: SN12C; assay: Growth inhibition of human SN12C cells assessed as cell growth at 10^-5 M incubated for 48 hrs by sulforhodamine B assay relative to control; details: read-out: Activity
[31] = tested on: IGROV-1; assay: Growth inhibition of human IGROV1 cells assessed as cell growth at 10^-5 M incubated for 48 hrs by sulforhodamine B assay relative to control; details: IGROV-1, 48 h, read-out: Activity
[32] = tested on: SF-295; assay: Growth inhibition of human SF295 cells assessed as cell growth at 10^-5 M incubated for 48 hrs by sulforhodamine B assay relative to control; details: SF-295, 48 h, read-out: Activity

Row | Structure (SMILES) | growth at 10 µM [1] [%] | growth at 10 µM [2] [%] | growth at 10 µM [3] [%] | growth at 10 µM [4] [%] | growth at 10 µM [5] [%] | growth at 10 µM [6] [%] | growth at 10 µM [7] [%] | growth at 10 µM [8] [%] | growth at 10 µM [9] [%] | growth at 10 µM [10] [%] | growth at 10 µM [11] [%] | growth at 10 µM [12] [%] | growth at 10 µM [13] [%] | growth at 10 µM [14] [%] | growth at 10 µM [15] [%] | growth at 10 µM [16] [%] | inhibition of growth at 10 µM [17] [%] | growth at 10 µM [18] [%] | growth at 10 µM [19] [%] | growth at 10 µM [20] [%] | further results
1 | O=C1Nc2ccccc2/C1=C/c1cccn1CCCCn1c2ccccc2c(=O)c2ccccc21 | 93.7 | 33.5 | 69.5 | 49.6 | 73.9 | 95.1 | 13 | 65.8 | 94.6 | 69.8 | 94.2 | 78 | 58.8 | 83.1 | 74.5 | 93 | 95 | 101 | 59.5 | 105 | growth at 10 µM [21]: 59.5%; growth at 10 µM [22]: 64.7%; growth at 10 µM [23]: 109%; growth at 10 µM [24]: 86.7%; growth at 10 µM [25]: 85.1%; growth at 10 µM [26]: 52.8%; growth at 10 µM [27]: 82.5%; growth at 10 µM [28]: 40.5%; growth at 10 µM [29]: 104%; growth at 10 µM [30]: 97.9%; growth at 10 µM [31]: 77.3%; growth at 10 µM [32]: 101%
2 | O=C1/C(=C\c2cccn2CCCCn2c3ccccc3c(=O)c3ccccc32)c2ccccc2N1c1c(Cl)cccc1Cl | 104 | 97.4 | 87.4 | 80.8 | 101 | 96 | 90.8 | 78.3 | 105 | 70 | 111 | 91.9 | 98.3 | 94 | 105 | 98.9 | 33 | 103 | 71 | 101 | growth at 10 µM [21]: 91.5%; growth at 10 µM [22]: 98.4%; growth at 10 µM [23]: 116%; growth at 10 µM [24]: 118%; growth at 10 µM [25]: 96%; growth at 10 µM [26]: 103%; growth at 10 µM [27]: 98.1%; growth at 10 µM [28]: 46.7%; growth at 10 µM [29]: 108%; growth at 10 µM [30]: 101%; growth at 10 µM [31]: 110%; growth at 10 µM [32]: 98.8%
3 | O=C1NC(=O)C(=Cc2cccn2CCCn2c3ccccc3c(=O)c3ccccc32)C(=O)N1 | 105 | 88 | 96.7 | 75.9 | 101 | 92.5 | 99.6 | 104 | 98.7 | 108 | 108 | 95.7 | 101 | 99.7 | 98.9 | 102 | 15 | 98.5 | 87.8 | 102 | growth at 10 µM [21]: 88.4%; growth at 10 µM [22]: 99.4%; growth at 10 µM [23]: 98.5%; growth at 10 µM [24]: 112%; growth at 10 µM [25]: 102%; growth at 10 µM [26]: 92.7%; growth at 10 µM [27]: 96.9%; growth at 10 µM [28]: 104%; growth at 10 µM [29]: 96.6%; growth at 10 µM [30]: 101%; growth at 10 µM [31]: 101%; growth at 10 µM [32]: 98.7%
